The text below walks through data of paper PMC5266543 (ACS infectious diseases, 2016).

The subject of one experiment is Yp. Type of experiment: cell-based, Yersinia pestis.
For another experiment, the system named is E. coli MG1655. It is filed as cell-based, Escherichia coli.
The test system of another experiment is M. tuberculosis H37Rv. Put plainly: microbe, parasite or virus in culture. It is filed as cell-based, Mycobacterium tuberculosis.
For the next experiment, the target named is Yp Dxr (Yersinia pestis, UniProt Q8ZH62). Type of experiment: biochemical.
Sequence of Yp Dxr (Q8ZH62 whole entry, looked up): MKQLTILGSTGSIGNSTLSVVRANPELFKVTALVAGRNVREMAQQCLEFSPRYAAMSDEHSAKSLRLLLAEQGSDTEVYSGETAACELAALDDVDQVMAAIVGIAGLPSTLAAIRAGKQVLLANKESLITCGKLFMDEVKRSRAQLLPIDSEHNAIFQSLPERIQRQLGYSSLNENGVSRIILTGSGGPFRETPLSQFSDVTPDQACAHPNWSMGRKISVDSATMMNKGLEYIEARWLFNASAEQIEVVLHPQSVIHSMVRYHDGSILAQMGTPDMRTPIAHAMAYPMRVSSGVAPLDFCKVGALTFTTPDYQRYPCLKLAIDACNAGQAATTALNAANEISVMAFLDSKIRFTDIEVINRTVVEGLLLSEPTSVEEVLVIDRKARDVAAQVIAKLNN
For the next experiment, the target named is T1, Mtb Dxr (Mycobacterium tuberculosis, UniProt P9WNS1).
T1 sequence (P9WNS1 1-413): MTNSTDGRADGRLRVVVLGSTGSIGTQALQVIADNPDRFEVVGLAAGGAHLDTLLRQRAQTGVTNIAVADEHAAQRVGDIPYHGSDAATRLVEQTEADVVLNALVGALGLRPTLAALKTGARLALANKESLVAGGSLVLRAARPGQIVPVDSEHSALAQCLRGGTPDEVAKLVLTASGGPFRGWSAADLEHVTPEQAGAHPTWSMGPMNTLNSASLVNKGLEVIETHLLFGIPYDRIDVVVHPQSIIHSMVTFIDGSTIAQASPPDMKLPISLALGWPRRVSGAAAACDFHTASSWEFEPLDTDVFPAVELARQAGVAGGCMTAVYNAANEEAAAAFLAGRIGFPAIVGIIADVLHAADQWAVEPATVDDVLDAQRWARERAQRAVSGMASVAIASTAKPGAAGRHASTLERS
It is filed as biochemical. As to conditions: for IC50: read-out: Mtb Dxr IC50.

In the next experiment the test system is Dxr. As to conditions: cited from earlier work.

The term IC50 denotes the concentration needed to halve the response being measured.

Consider `CC(=O)N(O)CCCP(=O)(O)O` [Compound 2, FR900098], for which the “growth inhibition activity (in words)” value with Yp and in the experiment on E. coli MG1655 was “potently inhibits bacterial propagation in a dose-dependent manner” throughout. Besides, the “M. tuberculosis MIC” value in the experiment with M. tuberculosis H37Rv is listed as above 500 µg/mL. Also, the IC50 at Yp Dxr (read-out: Yp Dxr IC50) is 0.23 µM; on Mtb Dxr it was 2.91 µM. In the experiment with Dxr, the mechanism of inhibition result was “competitive inhibitors with respect to DXP and uncompetitive relative to NADPH”.
In the case of `O=C(CCCc1ccccc1)N(O)CCCP(=O)([O-])O.[Na+]` [Compound 8h, Sodium hydrogen-3-(N-hydroxy-4-phenylbutanamido)propyl phosphonate], the “M. tuberculosis MIC” value in the experiment on M. tuberculosis H37Rv is above 200 µg/mL. On Yp Dxr, the “inhibition of Yp Dxr (in words)” value is “most active” and the “percent remaining enzyme activity at 100 µM (Yp Dxr)” value is “(34) percent”. Also, at Mtb Dxr, the “inhibition of Mtb Dxr (in words)” value is “greatest inhibition” and the IC50 was 17.8 µM. Further, in the experiment with Dxr, the binding modality entry is given as “competitively with DXP but noncompetitively with NADPH”.
